Where a name gives a salt, the structure may show the parent alone. Read-outs that look alike come from different tables or passages of the source.
What was measured:
[1] = Impurities in AeroVanc vancomycin powder stored for three months at 5° C. and 25° C., improved HPLC impurity method; format: physicochemical
Protocol: Calculate the concentration of each individual impurity in samples 1A, 2A and 3A, as follows:
Where: • I %i=Impurity concentration in sample 1A, 2A or 3A (as percentage) • 10=Dilution factor (50 mL/5.0 mL) • CV=Vancomycin concentration in sample solutions 1B, 2B or 3B (μg/mL) • Ci=Concentration of impurity in sample solution 1A, 2A or 3A (μg/mL) • Ci,total=Total concentration of impurities in sample solutions 1A, 2A or 3A
The method disclosed herein was also applied to the determination of degradation products of AeroVanc vancomycin powder stored for three months at 5° C. and 25° C.

[2] = Stated stability and handling properties; format: physicochemical; conditions: reference standards handling
Text: Vancomycin is a potent antibiotic reserved for serious drug-resistant bacterial infections including intravenous infusion for complicated infection (including MRSA) and oral administration for severe gastro-intestinal (GI) infections caused by Clostridium difficile. It was first isolated from soil bacterium (Amycolatopis orientalis) by Kornfeld in 1953, and first commercialized by Eli Lilly in 1954. Vancomycin, which is listed on the WHO's List of Essential Medicines, is a complex glycopeptide derived from N. orientalis with significant analytical challenges, including the presence of at least 12 identified impurities and a greater number of unknown impurities. […] Vancomycin has six ionizable groups and some of the impurities have seven. It is difficult to handle (high surface energy) and difficult to formulate. AeroVanc is a dry-powder inhalation product (DPI) under development for the treatment of methicillin resistant S. aureus (MRSA) infections in the lungs of cystic fibrosis patients. AeroVanc (vancomycin hydrochloride inhalation powder) contains the antibiotic and a single excipient, L-leucine. AeroVanc comprises a dry powder formulation which is delivered to the lungs by oral inhalation using a unit dose delivery device.

[3] = Impurity profiles of vancomycin degraded in solution and solid state (FIG. 22); format: physicochemical
Text: The method disclosed herein was successfully applied to the determination of degradation products of vancomycin in the solution and solid states.

[4] = background statement; cited from earlier work
[5] = AeroVanc vancomycin powder stored three months at 5° C.
[6] = AeroVanc vancomycin powder stored three months at 25° C.

**Q.** With `CC(C)C[C@@H](N)C(=O)N[C@H]1C(=O)N[C@@H](CC(N)=O)C(=O)N[C@H]2C(=O)N[C@H]3C(=O)N[C@H](C(=O)N[C@H](C(=O)O)c4cc(O)cc(O)c4-c4cc3ccc4O)[C@H](O)c3ccc(c(Cl)c3)Oc3cc2cc(c3O[C@@H]2O[C@H](CO)[C@@H](O)[C@H](O)[C@H]2O[C@H]2C[C@](C)(N)[C@H](O)[C@H](C)O2)Oc2ccc(cc2Cl)[C@H]1O` [N-demethyl, N-demethyl-vancomycin (EP Impurity A)] as the compound, how does the “Impurity (%)” value [1, 5] read?
**A.** The value was 1.757%.

**Q.** What about the “Impurity (%)” value [1, 6] of the same compound?
**A.** Its value is 1.722%.

**Q.** For `CC(C)C[C@H](C(=O)N[C@H]1C(=O)N[C@@H](CC(N)=O)C(=O)N[C@H]2C(=O)NC3C(=O)N[C@H](C(=O)N[C@H](C(=O)O)c4cc(O)cc(O)c4-c4cc3ccc4O)[C@H](O)c3ccc(c(Cl)c3)Oc3cc2cc(c3O[C@@H]2OC(CO)C(O)C(O)[C@H]2O[C@H]2C[C@](C)(N)[C@H](O)[C@H](C)O2)Oc2ccc(cc2Cl)[C@H]1O)N(C)C` (some centres unmarked) [N-methyl, N-methyl-vancomycin], which “Impurity (%)” value [1, 5] is on record?
**A.** The value was 0.019%.

**Q.** What about the “Impurity (%)” value [1, 6] of the same compound?
**A.** The value was 0.027%.

**Q.** With `CN[C@H](CC(C)C)C(=O)N[C@H]1C(=O)N[C@@H](CC(N)=O)C(=O)N[C@H]2C(=O)N[C@H]3C(=O)N[C@H](C(=O)N[C@H](C(=O)O)c4cc(O)cc(O)c4-c4cc3ccc4O)[C@H](O)c3ccc(c(Cl)c3)Oc3cc2cc(c3O[C@@H]2O[C@H](CO)[C@@H](O)[C@H](O)[C@H]2O[C@H]2C[C@](C)(N)[C@H](O)[C@H](C)O2)Oc2ccc(cc2Cl)[C@H]1O` [Vancomycin HCl, vancomycin hydrochloride] as the compound, how does the “light sensitivity and hygroscopicity” value [2] read?
**A.** The value was “light sensitive and hygroscopic”.

**Q.** With `CN[C@H](CC(C)C)C(=O)N[C@H]1C(=O)N[C@@H](CC(N)=O)C(=O)N[C@H]2C(=O)N[C@H]3C(=O)N[C@H](C(=O)N[C@H](C(=O)O)c4cc(O)cc(O)c4-c4cc3ccc4O)[C@H](O)c3ccc(c(Cl)c3)Oc3cc2cc(c3O[C@@H]2O[C@H](CO)[C@@H](O)[C@H](O)[C@H]2O[C@H]2C[C@](C)(N)[C@H](O)[C@H](C)O2)Oc2ccc(cc2Cl)[C@H]1O` [Vancomycin] as the compound, how does the “impurity profile of degraded vancomycin” value ([3]; degraded in aqueous solution, compared to the degraded solid) read?
**A.** The value was “larger amounts of CDP-1 Minor, CPD-1 Major and additional unknowns”.

**Q.** And the “impurity profile of degraded vancomycin” value ([3]; degraded solid, compared to the degraded aqueous solution)?
**A.** Its value is “increased desamido-succinimide vancomycin and agluco vancomycin”.

**Q.** And the net charge (at high pH)?
**A.** Its net charge is −4.

**Q.** What about the net charge (at low pH) of the same compound?
**A.** The net charge was “+2”.

**Q.** What about the net charge (plateau region between pH 3.5 and 5.5) of the same compound?
**A.** The net charge was “+1”.

**Q.** What about the “stability at room temperature” value [4] of the same compound?
**A.** Its value is “unstable at room temperature”.

**Q.** With Agluco-vancomycin (EP Impurity C) as the compound, how does the “Impurity (%)” value [1, 5] read?
**A.** The value was 0.139%.

**Q.** What about the “Impurity (%)” value [1, 6] of the same compound?
**A.** Its value is 0.163%.

**Q.** For Cis-chloro-(2)-vancomycin, which “Impurity (%)” value [1, 5] is on record?
**A.** Its value is 0.194%.

**Q.** What about the “Impurity (%)” value [1, 6] of the same compound?
**A.** The value was 0.200%.

**Q.** Which “Impurity (%)” value [1, 5] does the source give for “De-((L-asn)-L-gln-vancomycin (EP Impurity B) [De-(L-Asn)-L-Gln]” here?
**A.** The value was 0.152%.

**Q.** What about the “Impurity (%)” value [1, 6] of the same compound?
**A.** Its value is 0.151%.

**Q.** For “Des-(amido)-aspartyl-vancomycin (CDP-1 minor) [CDP-1minor]”, which “Impurity (%)” value [1, 5] is on record?
**A.** The value was 0.017%.

**Q.** What about the “Impurity (%)” value [1, 6] of the same compound?
**A.** Its value is 0.026%.

**Q.** What does the source list for “Des-(amido)-succinimido- vancomycin [Des-amido-succinimido]”?
**A.** Impurity (%) [1, 5]: 0.577%; Impurity (%) [1, 6]: 0.759%

**Q.** Which “Impurity (%)” value [1, 5] does the source give for “Desvancosamino-vancomycin (EP Impurity D) [Des-vancosamino]” here?
**A.** Its value is 0.343%.

**Q.** What about the “Impurity (%)” value [1, 6] of the same compound?
**A.** Its value is 0.398%.

**Q.** For Epi-(26R)-vancomycin [Epi-26(R)], which “Impurity (%)” value [1, 5] is on record?
**A.** The value was 0.610%.

**Q.** What about the “Impurity (%)” value [1, 6] of the same compound?
**A.** The value was 0.628%.

**Q.** Which results are given for Monodechloro-(2)-vancomycin?
**A.** Impurity (%) [1, 5]: 0.069%; Impurity (%) [1, 6]: 0.072%

**Q.** With “Monodechloro-(6)-vancomycin [Mono-dechloro-(6)]” as the compound, how does the “Impurity (%)” value [1, 5] read?
**A.** Its value is 0.679%.

**Q.** What about the “Impurity (%)” value [1, 6] of the same compound?
**A.** Its value is 0.671%.

Reference: US20200115412A1, “SEPARATION OF VANCOMYCIN AND ITS DEGRADATION PRODUCTS” (SAVARA INC., priority 2018, published 2020)
